Reference: patent US20210078983A1, “COMPOSITIONS AND METHODS FOR THE TREATMENT OF CANCER” (Cellix Bio Private Limited, priority 2017, published 2021)
Values joined by “and” are separate entries in the source; they are usually repeats but may differ in a detail not shown here. Equal entries are not always repeated. “Also recorded” adds a separate entry of the source.

Tests used:
[1] = tested on: HCT116 human colon cancer xenograft; experiment: Anti-tumor activity in HCT116 xenograft in Foxn1 athymic nude mice (study CLBBI1); format: in vivo; settings: for Percent Tumor Growth Inhibition (% TGI): 5 days/week
Source text: Evaluation of the Anti-Tumor Activity of CLX-155 [(2R,3R,4R,5R)-2-(5-fluoro-4-octanamido-2-oxopyrimidin-1(2H)-yl)-5-methyltetrahydrofuran-3,4-diyl diacetate] in Relation to Capecitabine in HCT116 Xenograft in Foxn1 Athymic Nude Mice Model Study Code: CLBBI1
The purpose of this study was to evaluate the anti-tumor activity of CLX-155 administered by oral gavage, once daily for 5 days/week (two days off) for three weeks in HCT116 human colon cancer xenograft bearing Foxn1 athymic nude mice. The anti-tumor activity of CLX-155 was compared with capecitabine.
(§1) Foxn1 athymic nude female mice (7-8 weeks) were implanted with human colon cancer cell line, HCT116 (5 million cells/site) subcutaneously in the dorsal right flank. The animals were randomized (N=10) into different treatment groups as vehicle control, CLX-155 (125, 250 and 500 mg/kg/day) or capecitabine (1000 mg/kg/day) based on the tumor volume, when the subcutaneous tumor reached a volume in the range of 70-170 mm3. The doses were selected based on the results of a 7-day repeated dose range finding toxicity study in Foxn1 nude mice.
(§2) The animals in the control group were dosed with the formulation used for CLX-155, which consisted of Capryol 90 (32.5% w/v), Polysorbate 80 (2.5% w/v) in Water (q.$) at the dose volume of 8 mL/kg. The Capecitabine formulation was prepared using 0.5% Hydroxypropyl methylcellulose (HPMC E 15) in 40 mM citrate buffer, pH 6.0. Treatment to animals was performed for three consecutive weeks (5 days/week dosing followed by 2 days off). The dose volume was 8 and 10 ml/kg body weight for CLX-155 and capecitabine, respectively. […] Tumor growth inhibition (TGI) was calculated based on the tumor volume on a given day as compared to that on day 1.

[2] = Mortality, clinical signs and body weight in the HCT116 xenograft study; format: in vivo; settings: for mortality: N=10, deaths on day 14 and 22
Description: as §1, §2

Structure (SMILES): CCCCCCCC(=O)Nc1nc(=O)n([C@@H]2O[C@H](C)[C@@H](OC(C)=O)[C@H]2OC(C)=O)cc1F [CLX-155, (2R,3R,4R,5R)-2-(5-fluoro-4-octanamido-2-oxopyrimidin-1(2H)-yl)-5-methyltetrahydrofuran-3,4-diyl diacetate]
- Percent Tumor Growth Inhibition (% TGI) ([1]; 125 mg/kg/day oral gavage, day 3): 49.4%
- Percent Tumor Growth Inhibition (% TGI) ([1]; 125 mg/kg/day oral gavage, day 5): 59.5%
- Percent Tumor Growth Inhibition (% TGI) ([1]; 125 mg/kg/day oral gavage, day 8): 59.8%
- Percent Tumor Growth Inhibition (% TGI) ([1]; 125 mg/kg/day oral gavage, day 10): 56.3%
- Percent Tumor Growth Inhibition (% TGI) ([1]; 125 mg/kg/day oral gavage, day 12): 58.5%
- Percent Tumor Growth Inhibition (% TGI) ([1]; 125 mg/kg/day oral gavage, day 15): 57.8%
- Percent Tumor Growth Inhibition (% TGI) ([1]; 250 mg/kg/day oral gavage, day 3): 83.6%
- Percent Tumor Growth Inhibition (% TGI) ([1]; 250 mg/kg/day oral gavage, day 5): 61.4%
- Percent Tumor Growth Inhibition (% TGI) ([1]; 250 mg/kg/day oral gavage, day 8): 67.7%
- Percent Tumor Growth Inhibition (% TGI) ([1]; 250 mg/kg/day oral gavage, day 10): 66.5%
- Percent Tumor Growth Inhibition (% TGI) ([1]; 250 mg/kg/day oral gavage, day 12): 66.7%
- Percent Tumor Growth Inhibition (% TGI) ([1]; 250 mg/kg/day oral gavage, day 15): 70.4%
- Percent Tumor Growth Inhibition (% TGI) ([1]; 500 mg/kg/day oral gavage, day 3): 51.1%
- Percent Tumor Growth Inhibition (% TGI) ([1]; 500 mg/kg/day oral gavage, day 5): 67.1%
- Percent Tumor Growth Inhibition (% TGI) ([1]; 500 mg/kg/day oral gavage, day 8): 75.3%
- Percent Tumor Growth Inhibition (% TGI) ([1]; 500 mg/kg/day oral gavage, day 10): 75.4%
- Percent Tumor Growth Inhibition (% TGI) ([1]; 500 mg/kg/day oral gavage, day 12): 79.5%
- Percent Tumor Growth Inhibition (% TGI) ([1]; 500 mg/kg/day oral gavage, day 15): 90.6%
- complete tumor regressions / complete responders (CR) ([1]; 500 mg/kg/day, N=10): Two and 2/10
- TGI compared with the other drug (in words) ([1]; CLX-155 at 500 mg/kg/day): comparable to capecitabine at 1000 mg/kg/day
- tumor growth inhibition as compared to the vehicle control (in words) ([1]; all dose levels tested): statistically significant, dose dependent tumor growth inhibition at all doses; also recorded: statistically significant, dose dependent tumor growth inhibition at all the dose levels tested; also recorded: dose-dependent inhibition of tumor growth

Structure (SMILES): CCCCCOC(=O)Nc1nc(=O)n([C@@H]2O[C@H](C)[C@@H](O)[C@H]2O)cc1F [Capecitabine, reference compound]
- CR or PR observed ([1]; 1000 mg/kg/day): no CR or PR observed
- Percent Tumor Growth Inhibition (% TGI) ([1]; 1000 mg/kg/day, day 3): 27.3%
- Percent Tumor Growth Inhibition (% TGI) ([1]; 1000 mg/kg/day, day 5): 46.2%
- Percent Tumor Growth Inhibition (% TGI) ([1]; 1000 mg/kg/day, day 8): 68.0%
- Percent Tumor Growth Inhibition (% TGI) ([1]; 1000 mg/kg/day, day 10): 75.4%
- Percent Tumor Growth Inhibition (% TGI) ([1]; 1000 mg/kg/day, day 12): 80.9%
- Percent Tumor Growth Inhibition (% TGI) ([1]; 1000 mg/kg/day, day 15): 87.7%
- TGI compared with the other drug (in words) ([1]; Capecitabine at 1000 mg/kg/day): comparable to that observed at 500 mg/kg/day of CLX-155
- Mean % body weight reduction ([2]; 1000 mg/kg/day): −5.9%
- clinical signs of toxicity ([2]; 1000 mg/kg/day): hunched back and scaly skin
- mortality ([2]; 1000 mg/kg/day): Two
- mortality ([2]; 1000 mg/kg/day, listed as capecitabine): 2/10
- relative toxicity based on mortality and clinical signs of toxicity ([2]; capecitabine 1000 mg/kg/day vs CLX-155 125-500 mg/kg/day): relatively more toxic than CLX-155
